# Target: L-lactate dehydrogenase A chain (Homo sapiens, UniProt P00338)
# Experiment: Inhibition of human recombinant carboxy-terminal His-tagged LDHA by UV endpoint assay
row,Structure (SMILES),IC50 [µM]
1,O=C1CC(c2ccccc2)CC(O)=C1Sc1nncs1 (stereo unspecified),> 100
2,Nc1nnc(SC2=C(O)CC(c3ccccc3)CC2=O)s1 (stereo unspecified),> 100
3,O=C1CC(c2ccccc2)CC(O)=C1Sc1nc2ccc(Cl)cc2[nH]1 (stereo unspecified),> 100
4,Cc1cccc(C)c1SC1=C(O)CC(c2ccccc2)CC1=O (stereo unspecified),> 100
5,O=C1CC(c2ccccc2)CC(O)=C1Sc1ccc(F)cc1 (stereo unspecified),> 100
6,O=C1CC(c2ccccc2)CC(O)=C1Sc1cc(Cl)cc(Cl)c1 (stereo unspecified),> 100
7,CSc1ccc(SC2=C(O)CC(c3ccccc3)CC2=O)cc1 (stereo unspecified),> 100
8,O=C1CC(c2ccccc2)CC(O)=C1SCCO (stereo unspecified),> 100
9,Cc1cc(C)nc(SC2=C(O)CC(c3ccccc3)CC2=O)n1 (stereo unspecified),> 100
10,NC(=O)c1cccc(SC2=C(O)CC(c3ccccc3)CC2=O)c1 (stereo unspecified),> 100
11,Nc1cc(N)nc(SC2=C(O)CC(c3ccccc3)CC2=O)n1 (stereo unspecified),> 100
12,O=C1CC(c2ccccc2)CC(O)=C1Sc1cccc(C(F)(F)F)c1 (stereo unspecified),> 100
13,Cc1ccc(SC2=C(O)CC(c3ccccc3)CC2=O)c(C)c1 (stereo unspecified),> 100
14,NS(=O)(=O)c1cccc(SC2=C(O)CC(c3ccccc3)CC2=O)c1 (stereo unspecified),> 100
15,CCOC(=O)c1cnc(SC2=C(O)CC(c3ccccc3)CC2=O)nc1N (stereo unspecified),> 100
16,Cc1ccc(C)c(SC2=C(O)CC(c3ccccc3)CC2=O)c1 (stereo unspecified),> 64
17,Cc1csc(SC2=C(O)CC(c3ccccc3)CC2=O)n1 (stereo unspecified),> 100
18,COC(=O)CCSC1=C(O)CC(c2ccccc2)CC1=O (stereo unspecified),> 100
19,CC(C)C(C)SC1=C(O)CC(c2ccccc2)CC1=O (stereo unspecified),> 100
20,O=C1CC(c2ccccc2)CC(O)=C1SCc1ccc(Cl)cc1Cl (stereo unspecified),> 100
21,O=C1CC(c2ccccc2)CC(O)=C1SCc1cccc(C(F)(F)F)c1 (stereo unspecified),> 100

row,Structure (SMILES),IC50 [µM]
1,N#Cc1ccccc1SC1=C(O)CC(c2c(Br)cccc2Br)CC1=O (stereo unspecified),0.18
2,O=C1CC(c2ccccc2)CC(O)=C1Sc1nccs1 (stereo unspecified),> 100
3,O=C1CC(c2ccccc2)CC(O)=C1Sc1cccc(Cl)c1F (stereo unspecified),> 100
4,COc1ccc(OC)c(SC2=C(O)CC(c3ccccc3)CC2=O)c1 (stereo unspecified),> 100
5,O=C1CC(c2ccccc2)CC(O)=C1Sc1ncc[nH]1 (stereo unspecified),> 100
6,Cc1nnc(SC2=C(O)CC(c3ccccc3)CC2=O)s1 (stereo unspecified),> 100
7,O=C1CC(c2ccccc2)CC(O)=C1SC1CCCCC1 (stereo unspecified),> 100
8,COc1cccc(SC2=C(O)CC(c3ccccc3)CC2=O)c1 (stereo unspecified),> 100
9,CC(C)SC1=C(O)CC(c2ccccc2)CC1=O (stereo unspecified),> 100
10,Cc1cnc(SC2=C(O)CC(c3ccccc3)CC2=O)nc1O (stereo unspecified),> 100
11,O=C1CC(c2ccccc2)CC(O)=C1Sc1cccc(Cl)c1Cl (stereo unspecified),63
12,Nc1ccc(SC2=C(O)CC(c3ccccc3)CC2=O)cc1 (stereo unspecified),> 100
13,CCC(C)CSC1=C(O)CC(c2ccccc2)CC1=O (stereo unspecified),> 100
14,O=C1CC(c2ccccc2)CC(O)=C1Sc1ccc(Br)cc1 (stereo unspecified),> 100
15,O=C1CC(c2ccccc2)CC(O)=C1Sc1cc(Cl)ccc1Cl (stereo unspecified),12
16,O=C1CC(c2ccccc2)CC(O)=C1Sc1ccc(F)cc1F (stereo unspecified),> 100
17,COc1ccc(CSC2=C(O)CC(c3ccccc3)CC2=O)cc1 (stereo unspecified),> 100
18,CSc1nnc(SC2=C(O)CC(c3ccccc3)CC2=O)s1 (stereo unspecified),> 100
19,O=C1CC(c2ccccc2)CC(O)=C1Sc1ccc(F)cc1Cl (stereo unspecified),24
20,Cc1ccc(SC2=C(O)CC(c3ccccc3)CC2=O)cc1C (stereo unspecified),> 100
21,CCc1ccc(SC2=C(O)CC(c3ccccc3)CC2=O)cc1 (stereo unspecified),> 100

row,Structure (SMILES),IC50 [µM]
1,CC(=O)Nc1ccc(SC2=C(O)CC(c3ccccc3)CC2=O)cc1 (stereo unspecified),> 100
2,O=C1CC(c2ccccc2)CC(O)=C1Sc1ccc(C(=O)O)cc1 (stereo unspecified),> 100
3,COC(=O)CSC1=C(O)CC(c2ccccc2)CC1=O (stereo unspecified),> 100
4,O=C1CC(c2ccccc2)CC(O)=C1Sc1ncccn1 (stereo unspecified),> 100
5,COc1ccc(SC2=C(O)CC(c3ccccc3)CC2=O)cc1 (stereo unspecified),> 100
6,O=C1CC(c2ccccc2)CC(O)=C1Sc1ccc(C(F)(F)F)cc1 (stereo unspecified),> 100
7,Cc1ccnc(SC2=C(O)CC(c3ccccc3)CC2=O)n1 (stereo unspecified),> 100
8,O=C1CC(c2ccccc2)CC(O)=C1Sc1cccc(OC(F)(F)F)c1 (stereo unspecified),> 100
9,O=C1CC(c2ccccc2)CC(O)=C1Sc1cccs1 (stereo unspecified),> 100
10,O=C1CC(c2ccccc2)CC(O)=C1Sc1nc(O)cc(C(F)(F)F)n1 (stereo unspecified),> 100
11,Cc1ccc(SC2=C(O)CC(c3ccccc3)CC2=O)cc1 (stereo unspecified),> 100
12,COc1ccc(SC2=C(O)CC(c3ccccc3)CC2=O)cc1OC (stereo unspecified),> 100
13,Nc1ccc2nc(SC3=C(O)CC(c4ccccc4)CC3=O)[nH]c2c1 (stereo unspecified),> 100
14,O=C1CC(c2ccccc2)CC(O)=C1SCc1ccc(F)cc1 (stereo unspecified),> 100
15,Cc1cc(C)cc(SC2=C(O)CC(c3ccccc3)CC2=O)c1 (stereo unspecified),> 100
16,O=C1CC(c2ccccc2)CC(O)=C1Sc1ccc(Cl)cc1 (stereo unspecified),> 100
17,Cc1cccc(CSC2=C(O)CC(c3ccccc3)CC2=O)c1 (stereo unspecified),> 100
18,Cc1ccc2nc(SC3=C(O)CC(c4ccccc4)CC3=O)[nH]c2c1 (stereo unspecified),> 100
19,Cc1cc(C)c(SC2=C(O)CC(c3ccccc3)CC2=O)nc1C#N (stereo unspecified),> 100
20,Cc1ccc(CSC2=C(O)CC(c3ccccc3)CC2=O)cc1 (stereo unspecified),> 100

# Continued, values first:
row,IC50 [µM],Structure (SMILES)
1,> 100,O=C1CC(c2ccccc2)CC(O)=C1Sc1ccc2ccccc2c1 (stereo unspecified)
2,> 100,O=C1CC(c2ccccc2)CC(O)=C1SCc1ccccc1 (stereo unspecified)
3,> 100,O=C1CC(c2ccccc2)CC(O)=C1Sc1ccccc1C(=O)O (stereo unspecified)
4,> 100,O=C1CC(c2ccccc2)CC(O)=C1Sc1ccccc1 (stereo unspecified)
5,> 100,O=C1CC(c2ccccc2)CC(O)=C1Sc1nc2ccccc2s1 (stereo unspecified)
6,> 100,O=C1CC(c2ccccc2)CC(O)=C1Sc1ccccn1 (stereo unspecified)
7,> 100,O=C1CC(c2ccccc2)CC(O)=C1Sc1ccc(O)cc1 (stereo unspecified)
8,> 100,Nc1cccc(SC2=C(O)CC(c3ccccc3)CC2=O)c1 (stereo unspecified)
9,> 100,Cc1ccccc1SC1=C(O)CC(c2ccccc2)CC1=O (stereo unspecified)
10,> 66,O=C1CC(c2ccccc2)CC(O)=C1Sc1ccccc1C(F)(F)F (stereo unspecified)
11,> 100,NC(=O)c1ccccc1SC1=C(O)CC(c2ccccc2)CC1=O (stereo unspecified)
12,> 100,COc1ccccc1SC1=C(O)CC(c2ccccc2)CC1=O (stereo unspecified)
13,36,O=C1CC(c2ccccc2)CC(O)=C1Sc1ccccc1CO (stereo unspecified)
14,53,O=C1CC(c2ccccc2)CC(O)=C1Sc1ccccc1F (stereo unspecified)
15,53,O=C1CC(c2ccccc2)CC(O)=C1Sc1ccccc1Br (stereo unspecified)
16,> 100,COC(=O)c1ccccc1SC1=C(O)CC(c2ccccc2)CC1=O (stereo unspecified)
17,> 100,O=C1CC(c2ccccc2)CC(O)=C1Sc1cccc2ccccc12 (stereo unspecified)
18,> 100,O=C1CC(c2ccccc2)CC(O)=C1Sc1ccc(Cl)c(Cl)c1 (stereo unspecified)
19,> 100,O=C1CC(c2ccccc2)CC(O)=C1Sc1nc2ccccc2o1 (stereo unspecified)
20,> 100,Cc1cccc(Cl)c1SC1=C(O)CC(c2ccccc2)CC1=O (stereo unspecified)
21,> 100,CS(=O)(=O)c1ccccc1SC1=C(O)CC(c2ccccc2)CC1=O (stereo unspecified)
22,> 100,O=C1CC(c2ccccc2)CC(O)=C1Sc1cccc(Cl)c1 (stereo unspecified)
23,> 100,Cc1ccccc1CSC1=C(O)CC(c2ccccc2)CC1=O (stereo unspecified)
24,> 100,CCc1ccccc1SC1=C(O)CC(c2ccccc2)CC1=O (stereo unspecified)
25,> 100,O=C1CC(c2ccccc2)CC(O)=C1Sc1ccccc1O (stereo unspecified)
26,> 100,O=C1CC(c2ccccc2)CC(O)=C1Sc1c(Cl)cccc1Cl (stereo unspecified)
27,> 100,O=C1CC(c2ccccc2)CC(O)=C1Sc1cccc(F)c1 (stereo unspecified)
28,> 100,O=C1CC(c2ccccc2)CC(O)=C1Sc1cccc(Br)c1 (stereo unspecified)
29,> 100,Cc1cccc(SC2=C(O)CC(c3ccccc3)CC2=O)c1 (stereo unspecified)
